Measurements reported in patent publication US4868203A, “Bacterial substance and pharmaceutical composition thereof” (Kabushikikaisha Ueno Seiyaku Oyo Kenkyujo, priority 1986, dated 1989).
Values after ≈ are worked out from the molar mass of the structure shown. Values joined by “and” are separate entries in the source; they are usually repeats but may differ in a detail not shown here. Identical values can stand only once.

Tests used:
[1] = test system: Xandomonas campestris PV oryzae H75373; format: cell-based
[2] = test system: Aeromonas hydrophila IAM108; assay: Minimum growth inhibiting concentration, pathogenic bacteria of fish disease (Test Example 8); format: cell-based; conditions: Aeromonas hydrophila IAM108 (Aeromonas disease of carp)
Source text: (§1) The minimum growth inhibitory concentrations (MIC) of the bacterial substance UFC-N11 against various bacteria were according to conventional procedure the results are as follows: […]

[3] = test system: Flexibacter columnaris V-II; assay: as above; format: cell-based; conditions: Flexibacter columnaris V-II (Columnaris disease of eel)
Source text: as §1

[4] = test system: Vibrio anguillarum 25-1; assay: as above; format: cell-based; conditions: Vibrio anguillarum 25-1 (Vibrio disease of sweetfish)
Source text: as §1

[5] = test system: Vibrio anguillarum K-3; assay: as above; format: cell-based; conditions: Vibrio anguillarum K-3 (Vibrio disease of young yellowtail)
Source text: as §1

[6] = test system: Pasteurella piscicida; assay: microbe, parasite or virus in culture; format: cell-based
[7] = Preservability of potato salad (Test Example 6); conditions: for Living bacteria: at end of storage life
Procedure: Bacterial substance UFC-N11 was added to potato (300 g), carrot (50 g), sliced onion (60 g), sliced cucumber (80 g), salad oil (15 g), vinegar (12. 5 g), NaCl (2 g), pepper (0.05 g) and mayonnaise (100 g) (total: ca 620 g) to prepare potato salad. Test samples (20 g/group) were packed in 200 ml mayonnaise bottles, sealed and examined for the preservability at 30° C. Potato and carrot were boiled and cut into appropriate size before use. The period until emission of a putrid smell is defined as effective storage life. General living bacterial number of samples at that time was also measured.

[8] = test system: Pasteurella piscicida DM-85 strain; design: species or system yellowtail; conditions: in vivo
[9] = Storage life of kamaboko, rot-proof property (Test Example 4)
Procedure: Fish paste was prepared by adding NaCl (2.5%), chemical seasoning (0.8%), starch (5%) and ice water (10%) based on frozen surimi of walleye pollack (4 kg) and cutting by a silent cutter for 10 minutes. Predetermined amount of bacterial substance UFC-N11 based on the resulting fish paste (2 kg) was added and completely mixed in a small mixer for 5 minutes. About 100 g fish paste were enclosed with polyvinylidene chloride film (spread width:45 mm), boiled at 90° C. for 30 minutes, quenched, left overnight and then tested for rot-proof property.
The test was conducted as follows. As the complete package products, 10 pieces/group of kamaboko processed by casing method samples and, as the simplified package products, 10 pieces/group prepared by peeling off the casing under sterilized condition, cutting into 2 round slices (thickness: 10 mm) by a sterilized knife and placing in a sterilized plastic Petri dish. were placed in a thermostatic chamber at 30° C. and evaluated by macroscopically observation. The evaluation uses five-level scale shown below. The period until the average evaluation value of 1 is attained is defined as the storage life.

CC=CC=CC=CC(=O)NC(CC(=O)NC(C(=O)C1C(=O)NC(=O)C1C)C(C)C)c1ccccc1 (stereo not shown) [UFC-N11]
MIC [1]: 0.05 µg/mL (≈ 0.104 µM)
MIC [2]: 5.0 µg/mL (≈ 10.4 µM)
MIC [3]: 0.63 µg/mL (≈ 1.31 µM)
MIC [4]: 2.5 µg/mL (≈ 5.21 µM)
MIC [5]: 2.5 µg/mL (≈ 5.21 µM)
MIC [6]: 0.31 µg/mL and 0.16 µg/mL
antibacterial activity [6]: excellent antibacterial activity
Living bacteria ([7]; 0.05 ppm): 5.9e+06 g⁻¹
Storage life ([7]; 0.05 ppm, pH 5.14, 30° C.): 24 h
Living bacteria ([7]; 0.5 ppm): 2.8e+07 g⁻¹
Storage life ([7]; 0.5 ppm, pH 5.15, 30° C.): 30 h
Living bacteria ([7]; 5.0 ppm): 8.1e+06 g⁻¹
Storage life ([7]; 5.0 ppm, pH 5.15, 30° C.): 43 h
Living bacteria ([7]; 50 ppm): 5.5e+07 g⁻¹
Storage life ([7]; 50 ppm, pH 5.16, 30° C.): 56 h
therapeutic effect [8]: excellent therapeutic effect
Storage life, Complete package ([9]; 0.01 ppm, pH 7.06, 30° C.): 5.0 days
Storage life, simplified package ([9]; 0.01 ppm, pH 7.06, 30° C.): 2.5 days
Storage life, Complete package ([9]; 0.1 ppm, pH 7.06, 30° C.): 7.0 days
Storage life, simplified package ([9]; 0.1 ppm, pH 7.06, 30° C.): 3.0 days
Storage life, Complete package ([9]; 1.0 ppm, pH 7.05, 30° C.): 9.0 days
Storage life, simplified package ([9]; 1.0 ppm, pH 7.05, 30° C.): 4.5 days
Storage life, Complete package ([9]; 10 ppm, pH 7.05, 30° C.): 14.0 days
Storage life, simplified package ([9]; 10 ppm, pH 7.05, 30° C.): 7.5 days
Storage life, Complete package ([9]; 50 ppm, pH 7.04, 30° C.): 18.0 days
Storage life, simplified package ([9]; 50 ppm, pH 7.04, 30° C.): 9.0 days
Storage life, Complete package ([9]; 100 ppm, pH 7.06, 30° C.): 24.0 days
Storage life, simplified package ([9]; 100 ppm, pH 7.06, 30° C.): 12.0 days
